The numbers were not newly measured in patent publication US20050053658A1, “Extended release systems for macrolide antibiotics” (priority 2003, published 2005), which cites them from elsewhere.

`CC[C@H]1OC(=O)[C@H](C)[C@@H](O[C@H]2C[C@@](C)(OC)[C@@H](O)[C@H](C)O2)[C@H](C)[C@@H](O[C@@H]2O[C@H](C)C[C@H](N(C)C)[C@H]2O)[C@](C)(OC)C[C@@H](C)C(=O)[C@H](C)[C@@H](O)[C@]1(C)O` [Clarithromycin]: the water solubility result is reported as “poorly water soluble”.
